Drawing on ChEMBL document CHEMBL1126506, “Thoromboxane A2/endoperoxide receptor antagonists: 1,3-Dioxane and 1,3-dioxolane analogs” (Bioorg Med Chem Lett, 1993), this text covers IC50 and Kd for six molecules.

Assay [1] concerns the target T1, Thromboxane A2 receptor (Homo sapiens, UniProt P21731).
T1 sequence (P21731 whole entry): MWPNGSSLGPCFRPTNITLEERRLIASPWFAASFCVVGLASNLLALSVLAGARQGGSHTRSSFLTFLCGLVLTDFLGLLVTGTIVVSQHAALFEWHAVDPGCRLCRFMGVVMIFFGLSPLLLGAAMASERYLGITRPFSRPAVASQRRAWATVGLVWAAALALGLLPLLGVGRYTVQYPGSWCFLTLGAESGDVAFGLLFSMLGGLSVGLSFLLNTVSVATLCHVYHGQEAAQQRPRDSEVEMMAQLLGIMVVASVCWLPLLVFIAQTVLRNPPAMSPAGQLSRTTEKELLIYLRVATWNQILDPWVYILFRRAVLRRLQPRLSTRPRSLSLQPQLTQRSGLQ
Briefly: In vitro inhibition against TXA2/PGH2 receptor using [3H]-SQ 29,548 as radioligand in human platelet membrane preparation. The class given is cell membranes. Particulars: read-out: I50.

Assay [2] has as its target T1, Thromboxane A2 receptor. Kind of assay: In vitro binding affinity was determined for platelet thromboxane receptor in presence of [3H]-SQ 29548.
The species entered for another assay is Homo sapiens. Briefly: Tested for ability to inhibit arachidonic acid-induced and ADP-induced platelet aggregation of human platelet rich plasma. The class given is functional. Particulars: read-out: I50.

`O=C(O)CCc1ccccc1CC1C2CCC(O2)C1c1nc(C(=O)NCCc2ccc(Cl)cc2)co1` (stereo not given): the IC50 on Thromboxane A2 receptor [1] was 7 nM.
As usually defined, the Kd is a measure of binding affinity in units of concentration. Take `O=C(O)CCc1ccccc1CC1COCOC1c1nc(C(=O)NCCc2ccc(Cl)cc2)co1` (stereo not given): the Kd on Thromboxane A2 receptor [2] was determined as 8 nM. For the same molecule, the IC50 at Thromboxane A2 receptor [1] came to 330 nM.
Regarding `O=C(O)CCc1ccccc1CC1OCOC1c1nc(C(=O)NCCc2ccc(Cl)cc2)co1` (racemic), the Kd on Thromboxane A2 receptor [2] stood at 31.1 nM. Further, the IC50 on Thromboxane A2 receptor [1] came to 130 nM.
Taken in the same sequence, the figures for `O=C(O)CCc1ccccc1CC1OCOC1c1nc(C(=O)NCCc2ccc(Cl)cc2)co1` (trans isomer; (+)) were 45 nM and 3100 nM.
Turning to `O=C(O)CCc1ccccc1CC1OCOC1c1nc(C(=O)NCCc2ccc(Cl)cc2)co1` (trans isomer; (-)), the Kd at Thromboxane A2 receptor [2] is 8.2 nM. Moreover, the IC50 at Thromboxane A2 receptor [1] is 310 nM.
For `CCCCCNC(=O)c1coc(C2C3CCC(O3)C2Cc2ccccc2CCC(=O)O)n1` (stereo not given) [BMS-180291], the IC50 in the assay listed under Homo sapiens is 7 nM.
